Results as given in patent US20050227302A1, “Induction of apoptosis via ARTS-IAP complexes” (priority 2004, published 2005).

Legend:
XIAP [1] = assay: Co-immunoprecipitation of ARTS-XIAP complexes in COS-7 cells; format: cell-based, African Green Monkey
Experimental: (§1) Protein extracts were prepared with lysis buffer (150 mM NaCl, 50 mM Tris-HCl (pH 8), 1% NP-40, 0.5% deoxycholate acid) with protease inhibitors. Lysates containing equal amounts of total protein were pre-cleared overnight with 1 mg mouse IgG (Sigma) coupled with protein A/G-Sepharose mix (Amersham Biosciences) and the beads centrifuged. Supernatants were immuno-precipitated using 5 μl of anti-ARTS antibody for 4 h, anti-XIAP antibody, rabbit anti-myc antibody, or mouse IgG (negative control). Protein A/G Sepharose beads were added for 1 hour and washed four times with PBS. Antibodies against XIAP (as above), Myc (Santa Cruz), or anti-ARTS (NT) antibodies directed against the common N′ terminus of ARTS and H5 (ProSci Incorporated) were used for Western blot.

ARTS = assay: Cell fractionation, ARTS levels in sub-cellular fractions; format: cell-based; details: treated with staurosporine (STS) for 1 hour
Experimental: Cells were homogenized in 20 mM HEPES-KOH, pH 7.5, 10 mM KCl, 1.5 mM MgCl2, 1 mM sodium EDTA, 1 mM sodium EGTA, and 1 mM dithiothreitol in the presence of 250 mM sucrose and protease inhibitors. Homogenates were centrifuged at 500×g for 5 min at 4° C., and the supernatant was centrifuged at 10,000×g for 20 min to obtain mitochondria. The pellet was washed and solubilized in TNC buffer (10 mM Tris acetate, pH 8.0, 0.5% Nonidet P-40 (NP-40), 5 mM CaCl2) with protease inhibitors. Protein concentration was determined with a Micro-BCA kit (Pierce).

XIAP [2] = assay: Co-immunoprecipitation of ARTS-XIAP complexes in NRP154 cells; format: cell-based, rat
Experimental: as §1

COS-7 cells = assay: Immunofluorescence of ARTS and XIAP localization in COS-7 cells; format: cell-based, African Green Monkey; details: for ARTS and XIAP co-localization: COS-7 cells transfected with AU5-ARTS and pcDNA3-Myc-XIAP, 100 mM etoposide
Experimental: Cells were fixed with 4% paraformaldehyde in PBS for 20 min at room temperature, washed with PBS, permeabilized with 0.5% Triton-X in PBS for 5 min, and incubated with primary antibodies for 2 hours at room temperature (rabbit polyclonal anti-ARTS (1:20,000; Sigma), monoclonal anti-ARTS, and/or monoclonal anti-XIAP (1:500; used in subsequent Examples). Cells were washed three times with PBS/0.1% Triton-X and incubated with FITC conjugated anti-mouse and Rhodamin^TX-conjugated anti-rabbit secondary antibodies (Jackson). Images were analyzed using a confocal laser microscope (Zeiss LSM 510). Mitochondria were visualized with MitoTracker® Red CMXRos (Molecular Probes/Invitrogen).
For caspase inhibition, we added […] of BOC-Asp(Ome)CH2F (Enzyme Systems Products) one hour prior to addition of the apoptotic agents.

XIAP [3] = target: T1, XIAP (Homo sapiens, UniProt P98170); assay: GST pull-down assay of ARTS and XIAP; format: binding; details: lysates of COS-7 cells transfected with AU5-tagged construct; Western blot anti-AU5
T1 construct: made in house; host or cells: bacteria (pGEX-XIAP plasmid obtained from Dr. Colin S. Duckett)
T1 sequence (P98170 whole entry): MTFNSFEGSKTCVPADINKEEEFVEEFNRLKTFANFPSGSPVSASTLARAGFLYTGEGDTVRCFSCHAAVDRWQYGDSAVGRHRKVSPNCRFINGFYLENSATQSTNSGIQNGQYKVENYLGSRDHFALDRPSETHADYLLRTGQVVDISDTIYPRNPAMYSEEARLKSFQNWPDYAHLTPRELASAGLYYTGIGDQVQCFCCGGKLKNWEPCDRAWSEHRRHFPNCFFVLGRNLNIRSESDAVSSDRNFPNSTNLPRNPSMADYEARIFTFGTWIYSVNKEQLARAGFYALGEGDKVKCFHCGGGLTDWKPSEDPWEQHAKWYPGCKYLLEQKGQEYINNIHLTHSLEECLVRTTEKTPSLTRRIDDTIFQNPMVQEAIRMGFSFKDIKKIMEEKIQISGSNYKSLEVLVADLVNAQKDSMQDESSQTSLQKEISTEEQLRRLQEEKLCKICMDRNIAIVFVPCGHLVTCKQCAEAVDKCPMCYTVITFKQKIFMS
Excerpt: For the glutathione-S-transferase (GST)-pull down assays, ARTS was subcloned into the pGEX 4T™ (Pharmacia Biotech) construct; GST-ARTS fusion protein was generated by Polymerase Chain Reaction (PCR) using the following primers: • BamHI-5′-[…]-3′ (SEQ ID No: 4) and • EcoRI-5′ […]-3′ (SEQ ID No: 5) and cloned into BamHI and EcoRI sites in pGEX 4T. Preparation of Beads
For in vitro binding studies, recombinant GST-ARTS or GST-XIAP fusion proteins were purified from bacteria. After sonication, 0.1% Triton X-100 and protease inhibitors (Mini-Complete™, Roche) were added to the bacterial extract followed by 10,000 rotations per minute (RPM) centrifugation. Supernatants of bacterial extracts were collected and incubated in the presence of glutathione-Sepharose 4B beads (Amersham Biosciences) for 30 minute at 4° C. The beads were washed three times.
Cells were lysed in RIPA buffer (150 mM NaCl, 50 mM Tris-HCl (pH 8), 1% NP-40, 0.1% SDS, 0.5% deoxycholate acid containing protease inhibitors (mini Complete, Roche)). Samples were divided into two tubes; one was rotated for 4 h at 4° C. with GST-ARTS fusion protein coupled with the glutathione beads, or GST-XIAP fusion protein. The second tube was incubated with glutathione beads alone (negative control). Samples were centrifuged at 4000-RPM at 4° C. for 4 minute and washed five times in lysis buffer, then boiled in sample buffer for 5 minutes to elute bound proteins Proteins were separated on 12.5% SDS-PAGE gel followed by Western blot analysis using monoclonal anti-ARTS antibody (Sigma), monoclonal anti-XIAP antibody (BD Transduction Laboratories) or monoclonal anti-myc antibody (Clontech).

[4] = Larisch S et al, Nat Cell Biol 2: 915-921, 2000; cited from earlier work

In the case of CN[C@@H]1C[C@H]2O[C@@](C)([C@@H]1OC)n1c3ccccc3c3c4c(c5c6ccccc6n2c5c31)C(=O)NC4 [staurosporine, reference compound], the ARTS-XIAP binding (XIAP [1]; COS-7 cells, endogenous proteins, three hours of incubation with staurosporine) is reported as “significant increase in ARTS-XIAP binding” and the “ARTS levels in the cytosol” value (ARTS) is reported as “strongly increased”.

For COc1cc([C@@H]2c3cc4c(cc3[C@@H](O[C@@H]3O[C@@H]5CO[C@@H](C)O[C@H]5[C@H](O)[C@H]3O)[C@H]3COC(=O)[C@H]23)OCO4)cc(OC)c1O [etoposide], the ARTS-XIAP complexes (XIAP [2]; 6 hours of etoposide treatment (100 μM)) was “increased further”, the ARTS-XIAP complexes (XIAP [2]; three hours of etoposide treatment (100 μM)) was “a large number of ARTS-XIAP complexes were detected” and the ARTS localization (COS-7 cells; ARTS-transfected COS-7 cells treated with etoposide, absence of caspase inhibitors) was “accumulated ARTS in the nucleus”. The “ARTS and XIAP co-localization” value (COS-7 cells; 2 hours) was “extensive overlap between ARTS and XIAP staining” and the “ARTS and XIAP co-localization” value (COS-7 cells; 16 hours) was “most of the staining for both proteins was confined to the nucleus”.

B1: H5: H5 septin protein derived by differential splicing from the same locus as ARTS; considerably larger protein (protein)
chain: MDRSLGWQGNSVPEDRTEAGIKRFLEDTTDDGELSKFVKDFSGNASCHPPEAKTWASRPQVPEPRPQAPDLYDDDLEFRPPSRPQSSDNQQYFCAPAPLSPSARPRSPWGKLDPYDSSEDDKEYVGFATLPNQVHRKSVKKGFDFTLMVAGESGLGKSTLVNSLFLTDLYRDRKLLGAEERIMQTVEITKHAVDIEEKGVRLRLTIVDTPGFGDAVNNTECWKPVAEYIDQQFEQYFRDESGLNRKNIQDNRVHCCLYFISPFGHGLRPLDVEFMKALHQRVNIVPILAKADTLTPPEVDHKKRKIREEIEHFGIKIYQFPDCDSDEDEDFKLQDQALKESIPFAVIGSNTVVEARGRRVRGRLYPWGIVEVENPGHCDFVKLRTMLVRTHMQDLKDVTRETHYENYRAQCIQSMTRLVVKERNRNKLTRESGTDFPIPAVPPGTDPETEKLIREKDEELRRMQEMLHKIQKQMKENY
modifications: left off: small tags and cut ends
In the case of B1, the “binding to GST-XIAP” value (XIAP [3]) is given as “Neither ARTSΔC nor H5 were able to bind to XIAP”, the “binding to XIAP in co-IP” value (XIAP [1]; COS-7 cells co-transfected with pcDNA-mycXIAP and AU5-tagged construct) is given as “Neither of these mutants bound to XIAP” and the pro-apoptotic activity [4] is given as “lacks pro-apoptotic activity”.
